In patent US3984415A, “1-Nitrophenylpyrido [2,3-d] pyrimidine-2,4(1H,3H)-diones” (Hisamitsu Pharmaceutical Co., Inc., priority 1973, dated 1976):
Where two headings read alike, the source gives them in different places.

Columns and labels:
[1] = Anti-inflammatory effect (carrageenin edema of hind paw); assay type: in vivo, Wistar-strain male rats; set-up: anti-inflammatory effect (inhibition percentage of carrageenin edema): scale not given here; settings: for inhibition in vivo at 10 mg/kg / inhibition in vivo at 50 mg/kg / inhibition in vivo at 20 mg/kg / inhibition in vivo at 100 mg/kg: Rattus norvegicus, po, read-out: anti-inflammatory effect (inhibition percentage of carrageenin edema)
Protocol: 2. Anti-inflammatory effect
A group of five Wistar-strain male rats (100-150 g) were orally administered with each test compound suspended in 0.5 % tragacanth-saline solution. After 30 minutes 0.5 %-1.0 % carrageenin suspended in the water for injection was injected subcutaneously to a hind paw. After 3 hours the carrageenin edema was measured by volume and the inhibition percentage was determined with respect to the results for the control animals. The inhibition percentages were shown with the notations as follows: […]

[2] = Analgetic effect (acetic acid writhing syndrome); assay type: in vivo, dd-strain male mice; settings: orally, mice; for ED50: Mus musculus, po, acetic acid writhing
Protocol: Each test compound suspended in 0.5 % tragacanth-saline solution was orally administered to dd-strain male mice (18-20 g). After one hour 0.6% acetic acid solution was intraperitoneally injected in a volume of 0.1 ml/10 g.

dd-strain male mice = settings: 72 hours
Protocol: The lethal dose was estimated from the death of animals 72 hours after administration.

[3] = dose 10 mg/kg, orally, rats, 3 hours
[4] = dose 50 mg/kg, orally, rats, 3 hours

| SMILES | inhibition in vivo at 10 mg/kg ([1]; 3 h) [%] | inhibition in vivo at 50 mg/kg ([1]; 3 h) [%] | inhibition in vivo at 10 mg/kg [1, 3] [%] | inhibition in vivo at 20 mg/kg ([1]; orally, rats, 3 hours) [%] | inhibition in vivo at 50 mg/kg [1, 4] [%] | inhibition in vivo at 100 mg/kg ([1]; orally, rats, 3 hours) [%] | ED50 [2] [mg/kg] | acute toxicity (lethal dose) (dd-strain male mice; i.p.) [mg/kg] | acute toxicity (lethal dose) (dd-strain male mice; p.o.) [mg/kg] | anti-inflammatory effect (inhibition percentage of carrageenin edema) [1, 4] | analgetic effect ED50, 95% C.L. ([2]; only the 95% confidential limits are printed) [mg/kg] |
| --- | --- | --- | --- | --- | --- | --- | --- | --- | --- | --- | --- |
| CN1C(=O)CN=C(c2ccccc2)c2cc(Cl)ccc21 [diazepam, reference compound] | < 15 | 16 to 30 | – | – | – | – | – | – | – | – | – |
| CCOC(=O)Cn1c(=O)c2cccnc2n(-c2cccc([N+](=O)[O-])c2)c1=O [Compound 27] | – | – | 31 to 45 | 31 to 45 | 46 to 60 | 46 to 60 | 45 | 1000 | > 2000 | – | – |
| O=c1c2cccnc2n(-c2cccc([N+](=O)[O-])c2)c(=O)n1CCCO [Compound 19] | – | – | 31 to 45 | 46 to 60 | 46 to 60 | > 61 | ~1 | > 1000 | > 2000 | – | – |
| CCn1c(=O)c2cccnc2n(-c2cccc([N+](=O)[O-])c2)c1=S [Compound 34] | – | – | 46 to 60 | – | 46 to 60 | – | ~0.2 | > 1000 | > 2000 | – | – |
| CCn1c(=O)c2cccnc2n(-c2cccc(C(F)(F)F)c2)c1=O [--C2 H5, reference compound] | – | – | 46 to 60 | 46 to 60 | > 61 | > 61 | 10 | 600 | 665 | – | – |
| CCCn1c(=O)c2cccnc2n(-c2cccc([N+](=O)[O-])c2)c1=O [Compound 4] | – | – | 46 to 60 | 46 to 60 | 31 to 45 | 46 to 60 | 2.6 | 1000 | > 2000 | – | – |
| CC(C)n1c(=O)c2cccnc2n(-c2cccc([N+](=O)[O-])c2)c1=O [Compound 5] | – | – | 46 to 60 | 46 to 60 | 46 to 60 | > 61 | 2.15 | > 1000 | – | – | – |
| CCCn1c(=O)c2cccnc2n(-c2cccc(Br)c2)c1=O [--CH2 CH2 CH3, reference compound] | – | – | 46 to 60 | 31 to 45 | 46 to 60 | > 61 | 20 | > 1000 | – | – | – |
| O=c1c2cccnc2n(-c2cccc([N+](=O)[O-])c2)c(=S)n1CC(F)(F)F [Compound 39] | – | – | > 61 | – | 46 to 60 | – | 0.23 | > 1000 | > 2000 | – | – |
| O=C(O)Cn1c(=O)c2cccnc2n(-c2cccc([N+](=O)[O-])c2)c1=O [Compound 26] | – | – | – | 16 to 30 | 31 to 45 | – | 33 | > 1000 | > 2000 | – | – |
| C#CCn1c(=O)c2cccnc2n(-c2cccc([N+](=O)[O-])c2)c1=O [Compound 12] | – | – | 46 to 60 | 46 to 60 | 46 to 60 | > 61 | 1.15 | > 1000 | > 2000 | – | – |
| O=c1c2cccnc2n(-c2cccc([N+](=O)[O-])c2)c(=O)n1CC(F)(F)F [Compound 16, 1-(m-nitrophenyl)-3-(2,2,2-trifluoroethyl)pyrido[2,3-d]pyrimidine-2,4(1H,3H)-dione] | – | – | 46 to 60 | > 61 | 46 to 60 | 46 to 60 | 1.28 | > 1000 | > 2000 | – | – |
| Cn1c(=O)c2cccnc2n(-c2cccc(Cl)c2)c1=O [--CH3, reference compound] | – | – | 31 to 45 | 46 to 60 | 46 to 60 | 46 to 60 | 7.1 | > 1000 | > 1000 | – | – |
| CCn1c(=O)c2cccnc2n(-c2cccc([N+](=O)[O-])c2)c1=O [Compound 3, 1-(m-nitrophenyl)-3-ethylpyrido[2,3-d]pyrimidine-2,4(1H,3H)-dione] | – | – | > 61 | > 61 | > 61 | – | 0.113 | – | – | – | – |
| O=C(Cn1c(=O)c2cccnc2n(-c2cccc([N+](=O)[O-])c2)c1=O)c1ccc(Cl)cc1 [O --CH2 CO] | – | – | – | – | – | < 15 | > 100 | > 1000 | > 2000 | – | – |
| O=C(O)c1ccccc1Nc1cccc(C(F)(F)F)c1 [flufenamic acid, reference compound] | – | – | < 15 | – | 16 to 30 | – | 180 | 300 to 1000 | – | – | – |
| CCOCCn1c(=O)c2cccnc2n(-c2cccc([N+](=O)[O-])c2)c1=O [Compound 23] | – | – | 31 to 45 | 46 to 60 | 46 to 60 | 31 to 45 | 0.168 | > 1000 | – | – | – |
| Cn1c(=O)c2cccnc2n(-c2cccc([N+](=O)[O-])c2)c1=O [Compound 2, 1-(m-nitrophenyl)-3-methylpyrido[2,3-d]pyrimidine-2,4(1H,3H)-dione] | – | – | 46 to 60 | 46 to 60 | > 61 | > 61 | 0.175 | – | – | – | – |
| CC(=O)OCCn1c(=O)c2cccnc2n(-c2cccc([N+](=O)[O-])c2)c1=O [Compound 21] | – | – | – | – | 16 to 30 | 31 to 45 | 0.16 | > 1000 | 2000 | – | – |
| O=c1c2cccnc2n(-c2cccc([N+](=O)[O-])c2)c(=O)n1CCCl [Compound 14] | – | – | 46 to 60 | > 61 | 46 to 60 | > 61 | 0.19 | > 1000 | > 2000 | – | – |
| O=c1c2cccnc2n(-c2cccc([N+](=O)[O-])c2)c(=O)n1CCO [Compound 18, 1-(m-nitrophenyl)-3-(2-hydroxyethyl)pyrido[2,3-d] pyrimidine-2,4(1H,3H)-dione] | – | – | – | – | 31 to 45 | 31 to 45 | 0.42 | > 1000 | > 2000 | – | – |
| O=c1c2cccnc2n(-c2cccc([N+](=O)[O-])c2)c(=O)n1CCc1ccccc1 [Compound 31] | – | – | – | – | – | < 15 | > 100 | > 1000 | > 2000 | – | – |
| Cn1c(=O)c2cccnc2n(-c2cccc([N+](=O)[O-])c2)c1=S [Compound 33, 1-(m-nitrophenyl)-3-methyl-2-thio-4-oxo-1,2,3,4-tetrahydropyrido[2,3-d]pyrimidine] | – | – | 46 to 60 | – | – | – | – | > 1000 | > 2000 | + ++ | 0.23 to 1.55 |
| O=c1c2cccnc2n(-c2cccc([N+](=O)[O-])c2)c(=O)n1Cc1ccccc1 [O --Ch2] | – | – | 31 to 45 | 46 to 60 | 46 to 60 | > 61 | 1.7 | – | – | – | – |
| O=c1c2cccnc2n(-c2cccc([N+](=O)[O-])c2)c(=O)n1CCF [Compound 15] | – | – | > 61 | 46 to 60 | > 61 | 46 to 60 | ~0.01 | – | 2000 | – | – |
| CCCn1c(=O)c2cccnc2n(-c2cccc([N+](=O)[O-])c2)c1=S [Compound 35] | – | – | 16 to 30 | – | 16 to 30 | – | ~1000 | > 1000 | > 2000 | – | – |
| O=c1c2cccnc2n(-c2cccc([N+](=O)[O-])c2)c(=O)n1CC1CC1 [O --CH2] | – | – | > 61 | > 61 | > 61 | > 61 | 0.12 | – | – | – | – |
| CCCCC1C(=O)N(c2ccccc2)N(c2ccccc2)C1=O [phenylbutazone, reference compound] | – | – | < 15 | – | 31 to 45 | – | 290 | – | – | – | – |
